In patent publication US9726659B2, “CMPF as a biomarker for diabetes and associated methods” (The Governing Council of the University of Toronto, priority 2012, dated 2017):

What was measured:
[1] = biological target: albumin (Homo sapiens, UniProt P02768); conditions: cited from earlier work
[2] = Plasma CMPF after IP injection; format: in vivo, CD1 mice; conditions: for up to 2 hours but not at 6 hours post-injection, n=4/group
Protocol: CD1 mice were injected IP with either vehicle control (black) or CMPF (white). A) Plasma samples were taken at 10, 30, 60, 120 and 360 minutes post-IP injection and assayed for CMPF. […] Over the 3-day course of IP injections, mice were monitored for body weight (B), random-fed blood glucose (C) and plasma insulin (C). There was no difference in any of these parameters. Following 3 consecutive days of CMPF injections, mice were fasted for 14 hrs and OGTTs were performed.

[3] = test system: MIN6 cells; experiment: Glucose- and KCl-stimulated insulin secretion in MIN6 cells; format: cell-based, murine; conditions: 200 uM
Protocol: (§1) LG=2.8 mM glucose, HG=16.7 mM glucose, KCl=16.7 mM glucose+30 mM KCl. *p<0.05.
(§2) Since beta cell failure is a major underlying cause of both GDM and T2D, the effect of increased CMPF on beta cell function was investigated both in vitro and in vivo. Using physiological concentrations of CMPF (20 uM and 200 uM, as observed in our NGT-pregnant and GDM-pregnant samples respectively (FIG. 2)), as well as a vehicle control (EtOH), its effect was studied on glucose-stimulated insulin secretion (GSIS) and insulin secretion in response to direct depolarization using the secretagogue KCl in an immortalized murine beta cell line (MIN6), as well as primary isolated human and murine islets (FIG. 3A). […] Therefore, high physiologically relevant levels of CMPF impair GSIS.

[4] = test system: mouse islets; experiment: ROS accumulation in isolated islets (mitoSOX red, CM-H2-DCFDA); format: cell-based; conditions: 200 μM, after 4 and 24 hrs of treatment
Protocol: A) Proinsulin in the media of 24 hr treated islets (n=4/group). B) Mitochondrial membrane potential (MMP) following acute addition of vehicle control or 200 μM of CMPF (N=3/group). C) ROS levels in 4- and 24-hour treated mouse islets with representative images (N=10-15 islets/mouse from 4 mice/group). D) Expression of antioxidant genes Cat and (e) Ucp2 (n=4/group). F) ROS accumulation in 24 hr-treated islets treated with 500 μM NAC (n=10 islets/mouse from 4 mice/group). G) GSIS and (h) total insulin content from 24 hr-treated islets co-treated with 500 μM NAC (n=4/group). Western blots showing (i) Ser9 phosphorylation of GSK3β, (j) Ser473 phosphorylation of AKT (n=3/group). K) Immunofluorescent staining showing nuclear translocation of FOXO1 and (l) PDX1 with CMPF and NAC treatment (n=3-6). Quantification of nuclear percentage of (m) FOXO1 and (n) PDX1 based on immunofluorescent staining with CMPF and NAC treatment. O) Western blots showing protein abundance of PDX1 and FOXO1. Values are mean+/−SEM. Student's t-test (a, c-j, m-o), one-way ANOVA (b). *P<0.05, **P<0.01, ***P<0.001.
The level of superoxide and H2O2 were determined using mitoSOX red and 2′,7′-dichlorodihydro fluorescein diacetate (CM-H2-DCFDA) respectively (Molecular Probes, Invitrogen, Canada) in isolated islets treated with either vehicle control or 200 μM CMPF for 4 or 24 hours, as previously described (Lee et al. 2009). […]

[5] = test system: primary murine islets; experiment: Glucose- and KCl-stimulated insulin secretion in primary murine islets; format: cell-based; conditions: 200 uM
Protocol: as §1, §2

albumin, sequence (P02768 25-609, species assumed): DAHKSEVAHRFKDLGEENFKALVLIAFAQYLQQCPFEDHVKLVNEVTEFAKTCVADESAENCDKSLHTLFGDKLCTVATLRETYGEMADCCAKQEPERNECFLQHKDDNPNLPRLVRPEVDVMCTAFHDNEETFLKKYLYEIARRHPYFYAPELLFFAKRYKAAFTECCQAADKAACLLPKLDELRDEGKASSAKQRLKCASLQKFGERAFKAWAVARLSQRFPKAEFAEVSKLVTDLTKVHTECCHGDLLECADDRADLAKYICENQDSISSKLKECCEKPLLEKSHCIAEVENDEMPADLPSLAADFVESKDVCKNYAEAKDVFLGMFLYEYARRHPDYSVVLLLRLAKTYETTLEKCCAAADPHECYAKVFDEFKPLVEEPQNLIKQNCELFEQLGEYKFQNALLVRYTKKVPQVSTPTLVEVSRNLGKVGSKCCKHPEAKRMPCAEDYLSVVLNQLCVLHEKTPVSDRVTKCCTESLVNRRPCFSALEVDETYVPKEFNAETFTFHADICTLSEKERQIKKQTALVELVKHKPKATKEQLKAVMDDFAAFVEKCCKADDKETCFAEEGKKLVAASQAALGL

plasma CMPF level after IP injection [2]: significantly elevated
SMILES: CCCc1oc(CCC(=O)O)c(C(=O)O)c1C [CMPF, 3-carboxy-4-methyl-5-propyl-2-furanpropanoic acid]
albumin binding [1]: highly albumin-bound
KCl-stimulated insulin secretion ([3]; 4 hour pre-incubation): significantly impairs
glucose-stimulated insulin secretion (GSIS) ([3]; 4 hour pre-treatment, vs 20 uM and vehicle): significantly impaired
increase in ROS over controls [4]: 2 fold
GSIS ([5]; 24 hour pre-incubation, vs vehicle and 20 uM): impairs GSIS
glucose- and KCl-stimulated insulin secretion ([5]; CD1 mouse islets, 24 hours): significantly impaired
